What was measured:
Experiment in all cases: RBC kinase panel
Assay type in all cases: biochemical
Settings in all cases: ATP 10 μM, Data1, Data2
AKT1 = target: T1, AKT1 (Homo sapiens, UniProt P31749)
T1 construct: purchased Reaction Biology Corporation
How it was run: (§1)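 In this selectivity screen, one compound concentration (1 μM) was applied to 369 human kinases, with duplicates and 10 μM ATP in each reaction.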

AXL = target: T2, AXL (Homo sapiens, UniProt P30530)
T2 construct: purchased Reaction Biology Corporation
T2 sequence (P30530 26-894): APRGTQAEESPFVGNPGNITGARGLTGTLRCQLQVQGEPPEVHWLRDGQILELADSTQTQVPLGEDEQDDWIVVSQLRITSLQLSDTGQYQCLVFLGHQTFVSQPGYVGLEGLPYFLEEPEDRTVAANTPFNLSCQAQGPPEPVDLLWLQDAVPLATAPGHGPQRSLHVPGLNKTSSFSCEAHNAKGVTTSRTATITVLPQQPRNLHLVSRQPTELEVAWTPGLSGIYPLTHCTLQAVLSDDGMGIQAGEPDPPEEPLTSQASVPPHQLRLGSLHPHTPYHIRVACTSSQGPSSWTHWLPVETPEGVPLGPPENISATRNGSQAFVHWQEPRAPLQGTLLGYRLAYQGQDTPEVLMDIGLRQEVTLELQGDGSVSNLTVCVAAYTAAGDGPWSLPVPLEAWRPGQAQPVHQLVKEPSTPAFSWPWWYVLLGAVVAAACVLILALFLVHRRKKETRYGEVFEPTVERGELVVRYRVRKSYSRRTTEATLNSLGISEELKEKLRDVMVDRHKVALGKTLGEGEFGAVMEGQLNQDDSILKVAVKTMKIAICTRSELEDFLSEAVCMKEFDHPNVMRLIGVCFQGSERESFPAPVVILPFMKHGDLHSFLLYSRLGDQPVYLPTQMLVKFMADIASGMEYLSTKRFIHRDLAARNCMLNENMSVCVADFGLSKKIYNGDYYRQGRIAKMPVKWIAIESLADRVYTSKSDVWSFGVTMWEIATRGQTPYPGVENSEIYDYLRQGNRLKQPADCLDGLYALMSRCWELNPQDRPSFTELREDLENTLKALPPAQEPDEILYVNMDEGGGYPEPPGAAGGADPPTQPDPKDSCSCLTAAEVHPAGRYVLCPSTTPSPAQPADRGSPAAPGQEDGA
How it was run: as §1

BMX/ETK = target: T3, BMX/ETK (Homo sapiens, UniProt P51813)
T3 construct: purchased Reaction Biology Corporation
How it was run: as §1

CAMK1b = target: T4, CAMK1b (Homo sapiens, UniProt Q6P2M8)
T4 construct: purchased Reaction Biology Corporation
How it was run: as §1

CAMK1g = target: T5, CAMK1g (Homo sapiens, UniProt Q96NX5)
T5 construct: purchased Reaction Biology Corporation
How it was run: as §1

CDK14/cyclin Y (PFTK1) = target: T6, CDK14/cyclin Y (PFTK1) (Homo sapiens, UniProt O94921)
T6 construct: purchased Reaction Biology Corporation
T6 sequence (O94921 whole entry): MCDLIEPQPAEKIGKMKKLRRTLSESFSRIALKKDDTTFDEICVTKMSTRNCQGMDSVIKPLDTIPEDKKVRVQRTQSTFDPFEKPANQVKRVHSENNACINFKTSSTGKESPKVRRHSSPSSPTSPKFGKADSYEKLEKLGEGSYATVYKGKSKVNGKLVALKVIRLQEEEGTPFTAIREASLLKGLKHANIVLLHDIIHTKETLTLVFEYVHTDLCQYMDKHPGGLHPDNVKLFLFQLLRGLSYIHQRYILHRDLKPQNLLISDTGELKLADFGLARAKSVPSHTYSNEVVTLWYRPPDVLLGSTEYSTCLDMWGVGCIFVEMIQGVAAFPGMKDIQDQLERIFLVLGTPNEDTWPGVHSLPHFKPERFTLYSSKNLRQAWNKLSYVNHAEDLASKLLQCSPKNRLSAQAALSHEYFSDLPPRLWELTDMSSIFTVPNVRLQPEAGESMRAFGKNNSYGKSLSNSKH
T6 sequence (Q8ND76 whole entry partner): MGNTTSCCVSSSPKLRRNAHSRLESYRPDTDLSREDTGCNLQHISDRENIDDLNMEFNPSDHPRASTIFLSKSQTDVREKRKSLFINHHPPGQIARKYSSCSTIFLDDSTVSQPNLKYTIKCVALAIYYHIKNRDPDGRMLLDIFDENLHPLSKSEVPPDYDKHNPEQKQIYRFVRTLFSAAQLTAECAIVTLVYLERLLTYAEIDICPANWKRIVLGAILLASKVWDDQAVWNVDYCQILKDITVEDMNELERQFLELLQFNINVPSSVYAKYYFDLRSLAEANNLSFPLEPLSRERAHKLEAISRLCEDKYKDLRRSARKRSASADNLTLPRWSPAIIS
How it was run: as §1

CK1g1 = target: T7, CK1g1 (Homo sapiens, UniProt Q9HCP0)
T7 construct: purchased Reaction Biology Corporation
How it was run: as §1

CK1g2 = target: T8, CK1g2 (Homo sapiens, UniProt P78368)
T8 construct: purchased Reaction Biology Corporation
How it was run: as §1

DDR2 = target: T9, DDR2 (Homo sapiens, UniProt Q16832)
T9 construct: purchased Reaction Biology Corporation
How it was run: as §1

ERK5/MAPK7 = target: T10, ERK5/MAPK7 (Homo sapiens, UniProt Q13164)
T10 construct: purchased Reaction Biology Corporation
T10 sequence (Q13164 whole entry): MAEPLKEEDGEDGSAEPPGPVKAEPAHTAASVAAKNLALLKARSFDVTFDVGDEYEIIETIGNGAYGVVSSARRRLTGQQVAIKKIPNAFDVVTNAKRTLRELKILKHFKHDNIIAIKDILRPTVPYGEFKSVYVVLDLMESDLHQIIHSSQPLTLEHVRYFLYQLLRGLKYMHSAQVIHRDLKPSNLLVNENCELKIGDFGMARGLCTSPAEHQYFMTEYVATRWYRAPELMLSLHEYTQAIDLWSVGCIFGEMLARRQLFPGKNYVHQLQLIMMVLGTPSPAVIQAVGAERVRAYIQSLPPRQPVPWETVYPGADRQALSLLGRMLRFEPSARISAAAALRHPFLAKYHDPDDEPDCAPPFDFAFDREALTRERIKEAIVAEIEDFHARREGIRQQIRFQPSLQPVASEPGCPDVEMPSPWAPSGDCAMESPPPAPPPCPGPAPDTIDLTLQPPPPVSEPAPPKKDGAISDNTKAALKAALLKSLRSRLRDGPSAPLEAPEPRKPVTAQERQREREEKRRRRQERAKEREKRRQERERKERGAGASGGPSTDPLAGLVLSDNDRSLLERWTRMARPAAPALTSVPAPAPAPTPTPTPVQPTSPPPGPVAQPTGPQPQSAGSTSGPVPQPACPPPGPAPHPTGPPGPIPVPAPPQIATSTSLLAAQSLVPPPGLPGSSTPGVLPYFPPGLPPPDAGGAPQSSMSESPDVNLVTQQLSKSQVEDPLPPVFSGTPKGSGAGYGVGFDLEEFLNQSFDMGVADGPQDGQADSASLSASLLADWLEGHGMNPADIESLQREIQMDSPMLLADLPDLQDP
How it was run: as §1

ERN2/IRE2 = target: T11, ERN2/IRE2 (Homo sapiens, UniProt Q76MJ5)
T11 construct: purchased Reaction Biology Corporation
How it was run: as §1

FAK/PTK2 = target: T12, FAK/PTK2 (Homo sapiens, UniProt Q05397)
T12 construct: purchased Reaction Biology Corporation
How it was run: as §1

HGK/MAP4K4 = target: T13, HGK/MAP4K4 (Homo sapiens, UniProt O95819)
T13 construct: purchased Reaction Biology Corporation
How it was run: as §1

KDR/VEGFR2 = target: T14, KDR/VEGFR2 (Homo sapiens, UniProt P35968)
T14 construct: purchased Reaction Biology Corporation
How it was run: as §1

LATS1 = target: T15, LATS1 (Homo sapiens, UniProt O95835)
T15 construct: purchased Reaction Biology Corporation
T15 sequence (O95835 whole entry): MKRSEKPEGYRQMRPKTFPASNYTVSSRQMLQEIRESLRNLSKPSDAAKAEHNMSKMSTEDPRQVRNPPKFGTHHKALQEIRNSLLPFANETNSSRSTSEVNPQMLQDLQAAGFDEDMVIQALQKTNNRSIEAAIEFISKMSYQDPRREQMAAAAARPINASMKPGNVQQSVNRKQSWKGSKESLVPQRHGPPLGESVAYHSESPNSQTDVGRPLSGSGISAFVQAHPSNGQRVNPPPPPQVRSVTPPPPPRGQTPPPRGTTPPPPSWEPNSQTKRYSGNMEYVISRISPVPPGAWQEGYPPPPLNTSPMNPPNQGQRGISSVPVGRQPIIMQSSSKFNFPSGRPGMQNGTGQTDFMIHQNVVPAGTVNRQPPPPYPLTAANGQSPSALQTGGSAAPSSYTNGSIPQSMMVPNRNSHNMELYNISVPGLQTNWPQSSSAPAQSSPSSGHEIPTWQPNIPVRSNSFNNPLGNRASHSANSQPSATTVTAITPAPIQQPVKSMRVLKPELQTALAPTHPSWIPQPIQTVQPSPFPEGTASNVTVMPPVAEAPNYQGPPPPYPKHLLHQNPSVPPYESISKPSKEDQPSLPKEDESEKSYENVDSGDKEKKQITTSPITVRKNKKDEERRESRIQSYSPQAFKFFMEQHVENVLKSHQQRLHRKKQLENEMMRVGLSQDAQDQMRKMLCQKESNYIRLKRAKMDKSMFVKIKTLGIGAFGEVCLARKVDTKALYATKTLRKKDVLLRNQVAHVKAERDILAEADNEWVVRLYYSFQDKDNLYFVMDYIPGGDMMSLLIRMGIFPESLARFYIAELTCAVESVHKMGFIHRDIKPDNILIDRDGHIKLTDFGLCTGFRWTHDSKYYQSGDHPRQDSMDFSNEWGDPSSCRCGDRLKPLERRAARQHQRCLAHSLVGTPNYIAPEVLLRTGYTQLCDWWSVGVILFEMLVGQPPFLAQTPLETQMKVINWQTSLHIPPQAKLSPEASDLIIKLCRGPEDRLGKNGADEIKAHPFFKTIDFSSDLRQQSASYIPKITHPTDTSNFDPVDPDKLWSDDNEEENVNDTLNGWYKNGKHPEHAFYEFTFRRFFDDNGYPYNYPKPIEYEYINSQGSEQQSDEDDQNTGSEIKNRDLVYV
How it was run: as §1

LKB1 = target: T16, LKB1 (Homo sapiens, UniProt Q15831)
T16 construct: purchased Reaction Biology Corporation
How it was run: as §1

MLCK/MYLK = target: T17, MLCK/MYLK (Homo sapiens, UniProt Q15746)
T17 construct: purchased Reaction Biology Corporation
How it was run: as §1

MLK2/MAP3K10 = target: T18, MLK2/MAP3K10 (Homo sapiens, UniProt Q02779)
T18 construct: purchased Reaction Biology Corporation
How it was run: as §1

MYO3A = target: T19, MYO3A (Homo sapiens, UniProt Q8NEV4)
T19 construct: purchased Reaction Biology Corporation
How it was run: as §1

NEK6 = target: T20, NEK6 (Homo sapiens, UniProt Q9HC98)
T20 construct: purchased Reaction Biology Corporation
How it was run: as §1

NIM1 = target: T21, NIM1 (Homo sapiens, UniProt Q8IY84)
T21 construct: purchased Reaction Biology Corporation
How it was run: as §1

PKCnu/PRKD3 = target: T22, PKCnu/PRKD3 (Homo sapiens, UniProt O94806)
T22 construct: purchased Reaction Biology Corporation
How it was run: as §1

PKG1b = target: T23, PKG1b (Homo sapiens, UniProt Q13976)
T23 construct: purchased Reaction Biology Corporation
T23 sequence (Q13976 1-686 isoform Q13976-2): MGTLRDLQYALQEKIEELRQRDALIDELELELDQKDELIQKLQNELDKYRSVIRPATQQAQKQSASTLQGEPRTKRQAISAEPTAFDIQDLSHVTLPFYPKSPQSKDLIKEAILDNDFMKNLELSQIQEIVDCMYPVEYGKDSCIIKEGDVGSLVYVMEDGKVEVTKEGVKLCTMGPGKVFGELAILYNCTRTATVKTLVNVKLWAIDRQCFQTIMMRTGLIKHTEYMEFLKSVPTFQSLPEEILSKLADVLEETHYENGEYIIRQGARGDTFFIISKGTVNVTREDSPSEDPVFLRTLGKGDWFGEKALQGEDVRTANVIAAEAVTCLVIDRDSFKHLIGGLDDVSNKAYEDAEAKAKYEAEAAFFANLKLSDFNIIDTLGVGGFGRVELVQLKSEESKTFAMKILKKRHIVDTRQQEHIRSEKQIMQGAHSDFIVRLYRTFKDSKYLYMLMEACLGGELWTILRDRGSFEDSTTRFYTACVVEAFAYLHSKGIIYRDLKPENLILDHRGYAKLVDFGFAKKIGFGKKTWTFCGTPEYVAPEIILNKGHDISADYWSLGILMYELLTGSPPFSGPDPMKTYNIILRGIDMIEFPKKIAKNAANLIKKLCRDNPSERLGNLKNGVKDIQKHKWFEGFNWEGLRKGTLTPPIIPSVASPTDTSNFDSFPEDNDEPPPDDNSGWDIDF
How it was run: as §1

RON/MST1R = target: T24, RON/MST1R (Homo sapiens, UniProt Q04912)
T24 construct: purchased Reaction Biology Corporation
How it was run: as §1

SRPK2 = target: T25, SRPK2 (Homo sapiens, UniProt P78362)
T25 construct: purchased Reaction Biology Corporation
How it was run: as §1

SSTK/TSSK6 = target: T26, SSTK/TSSK6 (Homo sapiens, UniProt Q9BXA6)
T26 construct: purchased Reaction Biology Corporation
How it was run: as §1

TLK1 = target: T27, TLK1 (Homo sapiens, UniProt Q9UKI8)
T27 construct: purchased Reaction Biology Corporation
How it was run: as §1

TLK2 = target: T28, TLK2 (Homo sapiens, UniProt Q86UE8)
T28 construct: purchased Reaction Biology Corporation
How it was run: as §1

TYK1/LTK = target: T29, TYK1/LTK (Homo sapiens, UniProt P29376)
T29 construct: purchased Reaction Biology Corporation
How it was run: as §1

ULK2 = target: T30, ULK2 (Homo sapiens, UniProt Q8IYT8)
T30 construct: purchased Reaction Biology Corporation
How it was run: as §1

VRK2 = target: T31, VRK2 (Homo sapiens, UniProt Q86Y07)
T31 construct: purchased Reaction Biology Corporation
How it was run: as §1

WNK2 = target: T32, WNK2 (Homo sapiens, UniProt Q9Y3S1)
T32 construct: purchased Reaction Biology Corporation
How it was run: as §1

ZAP70 = target: T33, ZAP70 (Homo sapiens, UniProt P43403)
T33 construct: purchased Reaction Biology Corporation
How it was run: as §1

T1 sequence (P31749 whole entry): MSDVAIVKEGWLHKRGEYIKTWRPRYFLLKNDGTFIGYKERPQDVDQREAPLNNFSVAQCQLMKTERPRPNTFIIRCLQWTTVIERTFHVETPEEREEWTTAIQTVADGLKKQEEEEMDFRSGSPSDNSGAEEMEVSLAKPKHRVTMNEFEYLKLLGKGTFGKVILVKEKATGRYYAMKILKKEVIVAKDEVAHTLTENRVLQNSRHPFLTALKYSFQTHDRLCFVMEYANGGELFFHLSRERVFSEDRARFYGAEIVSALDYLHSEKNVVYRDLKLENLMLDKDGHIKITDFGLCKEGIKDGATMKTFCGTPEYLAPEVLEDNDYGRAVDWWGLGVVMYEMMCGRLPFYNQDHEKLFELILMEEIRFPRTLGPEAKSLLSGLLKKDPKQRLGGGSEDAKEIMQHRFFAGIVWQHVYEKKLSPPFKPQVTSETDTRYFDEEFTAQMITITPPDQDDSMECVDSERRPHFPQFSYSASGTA

CC(=O)Nc1nc2ccc(-c3cnc(C)c(NC(=O)OC4CCCCC4)c3)cc2s1 [PK68, cyclohexyl (5-(2-acetamidobenzo[d]thiazol-6-yl)-2-methylpyridin-3-yl)carbamate]
Activity% (AKT1; 1 μM): 99.12% | activity at 1 µM (AKT1): 99.2% | Activity% (AXL; 1 μM): 98.35% | activity at 1 µM (AXL): 98.8% | Activity% (BMX/ETK; 1 μM): 99.71% | activity at 1 µM (BMX/ETK): 99.9% | Activity% (CAMK1b; 1 μM): 99.49% | activity at 1 µM (CAMK1b): 101% | Activity% (CAMK1g; 1 μM): 92.94% | activity at 1 µM (CAMK1g): 93% | Activity% (CDK14/cyclin Y (PFTK1); 1 μM): 96.97% | activity at 1 µM (CDK14/cyclin Y (PFTK1)): 97.4% | Activity% (CK1g1; 1 μM): 89.50% | activity at 1 µM (CK1g1): 90.7% | Activity% (CK1g2; 1 μM): 96.19% | activity at 1 µM (CK1g2): 97.8% | Activity% (DDR2; 1 μM): 103.50% | activity at 1 µM (DDR2): 105% | Activity% (ERK5/MAPK7; 1 μM): 98.25% | activity at 1 µM (ERK5/MAPK7): 99.3% | Activity% (ERN2/IRE2; 1 μM): 92.56% | activity at 1 µM (ERN2/IRE2): 93.1% | Activity% (FAK/PTK2; 1 μM): 96.95% | activity at 1 µM (FAK/PTK2): 98% | Activity% (HGK/MAP4K4; 1 μM): 82.64% | activity at 1 µM (HGK/MAP4K4): 84.4% | Activity% (KDR/VEGFR2; 1 μM): 88.68% | activity at 1 µM (KDR/VEGFR2): 90.3% | Activity% (LATS1; 1 μM): 101.83% | activity at 1 µM (LATS1): 103% | Activity% (LKB1; 1 μM): 102.07% | activity at 1 µM (LKB1): 103% | Activity% (MLCK/MYLK; 1 μM): 97.43% | activity at 1 µM (MLCK/MYLK): 99.7% | Activity% (MLK2/MAP3K10; 1 μM): 55.63% | activity at 1 µM (MLK2/MAP3K10): 57% | Activity% (MYO3A; 1 μM): 91.22% | activity at 1 µM (MYO3A): 92.2% | Activity% (NEK6; 1 μM): 93.63% | activity at 1 µM (NEK6): 98.4% | Activity% (NIM1; 1 μM): 96.79% | activity at 1 µM (NIM1): 97.5% | Activity% (PKCnu/PRKD3; 1 μM): 101.06% | activity at 1 µM (PKCnu/PRKD3): 102% | Activity% (PKG1b; 1 μM): 84.59% | activity at 1 µM (PKG1b): 85% | Activity% (RON/MST1R; 1 μM): 99.01% | activity at 1 µM (RON/MST1R): 99.6% | Activity% (SRPK2; 1 μM): 100.99% | activity at 1 µM (SRPK2): 101% | Activity% (SSTK/TSSK6; 1 μM): 91.18% | activity at 1 µM (SSTK/TSSK6): 91.3% | Activity% (TLK1; 1 μM): 97.39% | activity at 1 µM (TLK1): 99.2% | Activity% (TLK2; 1 μM): 96.86% | activity at 1 µM (TLK2): 98.1% | Activity% (TYK1/LTK; 1 μM): 98.39% | activity at 1 µM (TYK1/LTK): 99.8% | Activity% (ULK2; 1 μM): 101.80% | activity at 1 µM (ULK2): 102% | Activity% (VRK2; 1 μM): 93.34% | activity at 1 µM (VRK2): 94.4% | Activity% (WNK2; 1 μM): 94.21% | activity at 1 µM (WNK2): 94.6% | Activity% (ZAP70; 1 μM): 105.87% | activity at 1 µM (ZAP70): 107%
